Results published in ChEMBL document CHEMBL1201862, “PubChem BioAssay data set” (2004).
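Briefly, cells in 96-well plates were exposed to five compound concentrations for 48 h, and endpoints were estimated by linear interpolation. GI50: concentration for 50% inhibition of growth.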 The source made the active and inactive calls. No stated cut-off is given here; in the data, active = GI50 up to about 1.1 µM and inactive = higher.

Assays:
Assay in all cases: NCI-60 cell line screen, 48 h
OVCAR-8 = test system: OVCAR-8
SF-539 = test system: SF-539
MDA-MB-435 = test system: MDA-MB-435
OVCAR-5 = test system: OVCAR-5
CAKI-1 = test system: CAKI-1
SK-MEL-28 = test system: SK-MEL-28
SR = test system: SR
U-251 = test system: U-251
UACC-62 = test system: UACC-62
EKVX = test system: EKVX
BT-549 = test system: BT-549
A549 = test system: A549
HCT-116 = test system: HCT-116
SK-MEL-2 = test system: SK-MEL-2
LOX IMVI = test system: LOX IMVI
Hs-578T = test system: Hs-578T
RPMI-8226 = test system: RPMI-8226
SF-268 = test system: SF-268
NCI-H460 = test system: NCI-H460

SMILES | GI50 (OVCAR-8) | GI50 (SF-539) | GI50 (MDA-MB-435) | GI50 (OVCAR-5) | GI50 (CAKI-1) | GI50 (SK-MEL-28) | GI50 (SR) | GI50 (U-251) | GI50 (UACC-62) | GI50 (EKVX) | GI50 (BT-549) | GI50 (A549) | GI50 (HCT-116) | GI50 (SK-MEL-2) | GI50 (LOX IMVI) | GI50 (Hs-578T) | GI50 (RPMI-8226) | GI50 (SF-268) | GI50 (NCI-H460)
CC(C)=CCC[C@](C)(O[C@@H]1O[C@H](CO)[C@@H](O)[C@H](O)[C@H]1O)[C@H]1CC[C@]2(C)[C@@H]1[C@H](O)C[C@@H]1[C@@]3(C)CC[C@H](O)C(C)(C)[C@@H]3[C@@H](O[C@@H]3O[C@H](CO)[C@@H](O)[C@H](O)[C@H]3O[C@@H]3O[C@@H](C)[C@H](O)[C@@H](O)[C@H]3O)C[C@]12C.CC(C)=CCC[C@](C)(O[C@@H]1O[C@H](CO)[C@@H](O)[C@H](O)[C@H]1O)[C@H]1CC[C@]2(C)[C@@H]1[C@H](O)C[C@@H]1[C@@]3(C)CC[C@H](O)C(C)(C)[C@@H]3[C@@H](O[C@@H]3O[C@H](CO)[C@@H](O)[C@H](O)[C@H]3O[C@@H]3O[C@H](CO)[C@@H](O)[C@H](O)[C@H]3O)C[C@]12C | 34.9 µM (inactive) | > 75 µM (inactive) | > 75 µM (inactive) | > 75 µM (inactive) | > 75 µM (inactive) | > 75 µM (inactive) | 29.2 µM (inactive) | > 75 µM (inactive) | > 75 µM (inactive) | > 75 µM (inactive) | 28.2 µM (inactive) | > 75 µM (inactive) | > 75 µM (inactive) | > 75 µM (inactive) | > 75 µM (inactive) | 51.3 µM (inactive) | > 75 µM (inactive) | 54.3 µM (inactive) | 7.5 µM (inactive)
COc1nc(C#CC2CCCCC2)nc(OC)n1 | 1.61 µM (inactive) | 2.45 µM (inactive) | 2.08 µM (inactive) | 2.51 µM (inactive) | 3.39 µM (inactive) | 8.18 µM (inactive) | 2.3 µM (inactive) | 3.39 µM (inactive) | 1.28 µM (inactive) | 16 µM (inactive) | 3.37 µM (inactive) | 3.95 µM (inactive) | 0.401 µM (active) | 3.81 µM (inactive) | 1.51 µM (inactive) | 3.58 µM (inactive) | 1.51 µM (inactive) | 4.07 µM (inactive) | 5.6 µM (inactive)
Cn1c(=O)c2c(nc3n(Cc4ccccc4)c(=O)c(NCCCBr)cn23)n(C)c1=O | 84.9 µM (inactive) |  | > 100 µM (inactive) | > 100 µM (inactive) | > 100 µM (inactive) | > 100 µM (inactive) | 23 µM (inactive) | 34.1 µM (inactive) | > 100 µM (inactive) | 43.6 µM (inactive) | > 100 µM (inactive) | > 100 µM (inactive) | 54 µM (inactive) | > 100 µM (inactive) | 99.1 µM (inactive) | 27.3 µM (inactive) | > 100 µM (inactive) | 41.2 µM (inactive) | > 100 µM (inactive)
C#C[C@]1(O)[C@@H](CO)O[C@@H](n2ccc(N)nc2=O)[C@@H]1O | < 0.0121 µM (active) | 0.111 µM (active) | < 0.01 µM (active) | 0.209 µM (active) | < 0.01 µM (active) | 0.0728 µM (active) | < 0.01 µM (active) | 0.0263 µM (active) | 0.0352 µM (active) | 0.173 µM (active) | 0.0834 µM (active) | < 0.01 µM (active) | < 0.0435 µM (active) | 0.0435 µM (active) | < 0.01 µM (active) | 0.108 µM (active) | < 0.01 µM (active) | 0.019 µM (active) | < 0.01 µM (active)
Cc1cc(O)c2c3c(ccc2c1)C(=O)c1c(O)cccc1C3=O [TETRANGULOL] | 9.68 µM (inactive) | 7.64 µM (inactive) | 0.179 µM (active) | > 51.3 µM (inactive) | > 100 µM (inactive) | > 100 µM (inactive) | 1.36 µM (inactive) | 21 µM (inactive) | 1.55 µM (inactive) | 7.14 µM (inactive) | 55.5 µM (inactive) | 5.14 µM (inactive) | 11.2 µM (inactive) | 10.3 µM (inactive) | 5.57 µM (inactive) | > 40.9 µM (inactive) | > 28.5 µM (inactive) | 5.66 µM (inactive) | 0.653 µM (active)
CN(C)c1nc(N)nc(CCl)n1 | 35.5 µM (inactive) | 26.1 µM (inactive) | 37.1 µM (inactive) | 65.9 µM (inactive) | 5.14 µM (inactive) | 50.4 µM (inactive) | 24.9 µM (inactive) | 35.2 µM (inactive) | 18.9 µM (inactive) | 18.3 µM (inactive) | 40 µM (inactive) | 78.9 µM (inactive) | 54.8 µM (inactive) | > 100 µM (inactive) | 7.87 µM (inactive) | 25.4 µM (inactive) | 46 µM (inactive) | 27.2 µM (inactive) | 32.7 µM (inactive)
CCC(=O)n1c(=O)n(-c2ccc([N+](=O)[O-])cc2)c(=O)n1C(=O)CC | > 100 µM (inactive) |  | > 100 µM (inactive) | > 100 µM (inactive) | > 100 µM (inactive) | > 100 µM (inactive) | > 100 µM (inactive) | > 100 µM (inactive) | > 100 µM (inactive) | > 100 µM (inactive) | > 100 µM (inactive) | > 100 µM (inactive) | > 100 µM (inactive) | > 100 µM (inactive) | > 100 µM (inactive) | > 100 µM (inactive) | > 100 µM (inactive) | > 100 µM (inactive) | > 100 µM (inactive)
CCOC(=O)C1=NN(c2ccc(C)cc2)C2(c3ccccc3)C=C(c3ccccc3)N(C)CCN12 (configuration not stated) | > 100 µM (inactive) | > 100 µM (inactive) | > 100 µM (inactive) | > 100 µM (inactive) | > 100 µM (inactive) | > 100 µM (inactive) | 35.2 µM (inactive) | > 100 µM (inactive) | > 100 µM (inactive) | > 100 µM (inactive) | > 100 µM (inactive) | > 100 µM (inactive) | > 100 µM (inactive) | > 100 µM (inactive) | > 100 µM (inactive) | > 100 µM (inactive) | 29 µM (inactive) | > 100 µM (inactive) | 
Cc1nnc(CC#N)n1NC(=O)CC#N | > 100 µM (inactive) | > 100 µM (inactive) | > 100 µM (inactive) | > 100 µM (inactive) | > 100 µM (inactive) | > 100 µM (inactive) | > 100 µM (inactive) | > 100 µM (inactive) | > 100 µM (inactive) | > 100 µM (inactive) | > 100 µM (inactive) | > 100 µM (inactive) | > 100 µM (inactive) | > 100 µM (inactive) | > 100 µM (inactive) | > 100 µM (inactive) |  | > 100 µM (inactive) | > 100 µM (inactive)
O=C(O)CN1CCN2CCOCCOCCN(CC1)CCN(CC(=O)O)CC2 | > 100 µM (inactive) | > 100 µM (inactive) | > 100 µM (inactive) | > 100 µM (inactive) | > 100 µM (inactive) | > 100 µM (inactive) | > 100 µM (inactive) | > 100 µM (inactive) | > 100 µM (inactive) | > 100 µM (inactive) | > 100 µM (inactive) | > 100 µM (inactive) | > 100 µM (inactive) | > 100 µM (inactive) | > 100 µM (inactive) | > 100 µM (inactive) | > 100 µM (inactive) |  | > 100 µM (inactive)
O=C1CS(=O)(=O)C(c2cccc(Oc3ccccc3)c2)N1C1CC1 (configuration not stated) | 38.5 µM (inactive) | 50.9 µM (inactive) | 26.2 µM (inactive) | 62.2 µM (inactive) | 0.045 µM (active) | 90.6 µM (inactive) | 31.6 µM (inactive) | 32.5 µM (inactive) | 31.6 µM (inactive) | 29 µM (inactive) | 41.7 µM (inactive) | 35.6 µM (inactive) | 25.5 µM (inactive) | 45.1 µM (inactive) | 41.7 µM (inactive) | > 100 µM (inactive) |  | 64.7 µM (inactive) | 43.4 µM (inactive)
CCCCOCOc1ccccc1P1(=O)COc2ccccc2OC1 |  | > 100 µM (inactive) | > 100 µM (inactive) | > 100 µM (inactive) | > 100 µM (inactive) | > 100 µM (inactive) | 37.1 µM (inactive) | > 100 µM (inactive) | 66.2 µM (inactive) | > 100 µM (inactive) | 41.5 µM (inactive) | 88.5 µM (inactive) | 62.5 µM (inactive) | > 100 µM (inactive) | > 100 µM (inactive) | 54 µM (inactive) | 87.9 µM (inactive) | > 100 µM (inactive) | 58.3 µM (inactive)
COCOc1cc(OC)ccc1C/C=N/O | > 100 µM (inactive) | > 100 µM (inactive) | > 100 µM (inactive) | > 100 µM (inactive) | > 100 µM (inactive) | > 100 µM (inactive) | > 100 µM (inactive) | > 100 µM (inactive) | > 100 µM (inactive) | > 100 µM (inactive) | > 100 µM (inactive) | > 100 µM (inactive) | > 100 µM (inactive) | > 100 µM (inactive) | > 100 µM (inactive) | > 100 µM (inactive) |  | > 100 µM (inactive) | > 100 µM (inactive)
Cc1ccc(S(=O)(=O)NC(CCC(=O)NN)C(=O)NN)cc1 (configuration not stated) | > 100 µM (inactive) | > 100 µM (inactive) | > 100 µM (inactive) | > 100 µM (inactive) | > 100 µM (inactive) |  | > 100 µM (inactive) | > 100 µM (inactive) | > 100 µM (inactive) | > 100 µM (inactive) | > 100 µM (inactive) | > 100 µM (inactive) | > 100 µM (inactive) | > 100 µM (inactive) | > 100 µM (inactive) | > 100 µM (inactive) | > 100 µM (inactive) | > 100 µM (inactive) | 0.067 µM (active)
